Laboratory results published in PubChem BioAssay (NCI).
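Growth conditions: 96-well plates. Treatment: test compound, 48 hours, 5 concentrations. Analysis: linear interpolation between bracketing concentrations; unreached endpoints set to highest concentration. GI50 is the concentration that inhibits growth by half. TGI: total growth inhibition.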

The molecules below were run on NCI-H522 lung (assay: NCI tumour cell line growth inhibition, 48 h).
In the case of CC#Cc1ccc(-c2ccccc2)s1, the TGI is reported as > 100 µM. CCNC(=O)C#Cc1ccc2c(C(=Nc3ccc(CN(C)C)cc3)c3ccccc3)c(O)[nH]c2c1 was tested, and the GI50 was 1.26 µM and the TGI was > 5.39 µM. In the case of O=C1c2cc3c(cc2CC12Cc1ccc4c(c1C2=O)CCC4)CCCC3 (configuration not stated), the TGI is reported as > 100 µM. In the case of NC(=S)N/N=C1\c2cc(Cl)ccc2-c2c1cc(Cl)cc2[N+](=O)[O-], the GI50 is reported as 4.11 µM and the TGI is reported as 48.6 µM.

Each molecule was assayed on MDA-MB-231 breast (assay: NCI tumour cell line growth inhibition, 48 h).
With CC1(C)[C@@H](Cn2cc(I)c(=O)[nH]c2=O)CC[C@@]1(C)CO the TGI was > 100 µM. CC#Cc1ccc(-c2ccccc2)s1 was tested, and the TGI was > 100 µM. CCNC(=O)C#Cc1ccc2c(C(=Nc3ccc(CN(C)C)cc3)c3ccccc3)c(O)[nH]c2c1 was tested, and the GI50 was 0.0295 µM and the TGI was 0.502 µM. With O=C1c2cc3c(cc2CC12Cc1ccc4c(c1C2=O)CCC4)CCCC3 (configuration not stated) the TGI was > 100 µM. For N#Cc1nc(-c2cnccn2)oc1N, the TGI was > 100 µM. In the case of NC(=S)N/N=C1\c2cc(Cl)ccc2-c2c1cc(Cl)cc2[N+](=O)[O-], the GI50 is reported as 3.85 µM and the TGI is reported as 34.9 µM.

These molecules were tested on SK-MEL-28 melanoma (assay: NCI tumour cell line growth inhibition, 48 h).
CC1(C)[C@@H](Cn2cc(I)c(=O)[nH]c2=O)CC[C@@]1(C)CO was tested, and the TGI was > 100 µM. In the case of CC#Cc1ccc(-c2ccccc2)s1, the TGI is reported as > 100 µM. With CCNC(=O)C#Cc1ccc2c(C(=Nc3ccc(CN(C)C)cc3)c3ccccc3)c(O)[nH]c2c1 the GI50 was 0.00911 µM and the TGI was 0.102 µM. For O=C1c2cc3c(cc2CC12Cc1ccc4c(c1C2=O)CCC4)CCCC3 (configuration not stated), the TGI was > 100 µM. For N#Cc1nc(-c2cnccn2)oc1N, the TGI was > 100 µM. With NC(=S)N/N=C1\c2cc(Cl)ccc2-c2c1cc(Cl)cc2[N+](=O)[O-] the GI50 was 3.83 µM and the TGI was > 100 µM.

The molecules below were run on OVCAR-4 ovarian (assay: NCI tumour cell line growth inhibition, 48 h).
CC1(C)[C@@H](Cn2cc(I)c(=O)[nH]c2=O)CC[C@@]1(C)CO was tested, and the TGI was > 100 µM. In the case of CC#Cc1ccc(-c2ccccc2)s1, the TGI is reported as > 100 µM. With CCNC(=O)C#Cc1ccc2c(C(=Nc3ccc(CN(C)C)cc3)c3ccccc3)c(O)[nH]c2c1 the GI50 was 0.61 µM and the TGI was 7.63 µM. In the case of O=C1c2cc3c(cc2CC12Cc1ccc4c(c1C2=O)CCC4)CCCC3 (configuration not stated), the TGI is reported as > 100 µM. Work on NC(=S)N/N=C1\c2cc(Cl)ccc2-c2c1cc(Cl)cc2[N+](=O)[O-] yielded a GI50 of 1.92 µM and a TGI of 8.35 µM.

The molecules below were run on TK-10 renal (assay: NCI tumour cell line growth inhibition, 48 h).
For CC1(C)[C@@H](Cn2cc(I)c(=O)[nH]c2=O)CC[C@@]1(C)CO, the TGI was > 100 µM. With CC#Cc1ccc(-c2ccccc2)s1 the TGI was > 100 µM. With CCNC(=O)C#Cc1ccc2c(C(=Nc3ccc(CN(C)C)cc3)c3ccccc3)c(O)[nH]c2c1 the GI50 was 0.593 µM and the TGI was > 5.41 µM. With O=C1c2cc3c(cc2CC12Cc1ccc4c(c1C2=O)CCC4)CCCC3 (configuration not stated) the TGI was > 100 µM. In the case of N#Cc1nc(-c2cnccn2)oc1N, the TGI is reported as > 100 µM. In the case of NC(=S)N/N=C1\c2cc(Cl)ccc2-c2c1cc(Cl)cc2[N+](=O)[O-], the GI50 is reported as 20.5 µM and the TGI is reported as > 100 µM.

These molecules were tested on UO-31 renal (assay: NCI tumour cell line growth inhibition, 48 h).
In the case of CC1(C)[C@@H](Cn2cc(I)c(=O)[nH]c2=O)CC[C@@]1(C)CO, the TGI is reported as > 100 µM. In the case of CC#Cc1ccc(-c2ccccc2)s1, the TGI is reported as > 100 µM. With CCNC(=O)C#Cc1ccc2c(C(=Nc3ccc(CN(C)C)cc3)c3ccccc3)c(O)[nH]c2c1 the GI50 was 0.0811 µM and the TGI was 1.34 µM. O=C1c2cc3c(cc2CC12Cc1ccc4c(c1C2=O)CCC4)CCCC3 (configuration not stated) was tested, and the TGI was > 100 µM. With N#Cc1nc(-c2cnccn2)oc1N the TGI was > 100 µM. With NC(=S)N/N=C1\c2cc(Cl)ccc2-c2c1cc(Cl)cc2[N+](=O)[O-] the GI50 was 4.81 µM and the TGI was 70.2 µM.

These molecules were tested on SW-620 colon (assay: NCI tumour cell line growth inhibition, 48 h).
CC1(C)[C@@H](Cn2cc(I)c(=O)[nH]c2=O)CC[C@@]1(C)CO was tested, and the TGI was > 100 µM. With CC#Cc1ccc(-c2ccccc2)s1 the TGI was > 100 µM. With CCNC(=O)C#Cc1ccc2c(C(=Nc3ccc(CN(C)C)cc3)c3ccccc3)c(O)[nH]c2c1 the GI50 was 0.0156 µM and the TGI was 1.54 µM. In the case of O=C1c2cc3c(cc2CC12Cc1ccc4c(c1C2=O)CCC4)CCCC3 (configuration not stated), the TGI is reported as > 100 µM. In the case of N#Cc1nc(-c2cnccn2)oc1N, the TGI is reported as > 100 µM. NC(=S)N/N=C1\c2cc(Cl)ccc2-c2c1cc(Cl)cc2[N+](=O)[O-] was tested, and the GI50 was 10.7 µM and the TGI was > 100 µM.

Each molecule was assayed on SR leukemia (assay: NCI tumour cell line growth inhibition, 48 h).
In the case of CC#Cc1ccc(-c2ccccc2)s1, the TGI is reported as > 100 µM. For CCNC(=O)C#Cc1ccc2c(C(=Nc3ccc(CN(C)C)cc3)c3ccccc3)c(O)[nH]c2c1, the GI50 was 0.00778 µM and the TGI was 2.93 µM. O=C1c2cc3c(cc2CC12Cc1ccc4c(c1C2=O)CCC4)CCCC3 (configuration not stated) was tested, and the TGI was > 100 µM. In the case of N#Cc1nc(-c2cnccn2)oc1N, the TGI is reported as > 100 µM. For NC(=S)N/N=C1\c2cc(Cl)ccc2-c2c1cc(Cl)cc2[N+](=O)[O-], the GI50 was 4.87 µM and the TGI was > 100 µM.

The molecules below were run on CAKI-1 renal (assay: NCI tumour cell line growth inhibition, 48 h).
CC1(C)[C@@H](Cn2cc(I)c(=O)[nH]c2=O)CC[C@@]1(C)CO was tested, and the TGI was > 100 µM. For CC#Cc1ccc(-c2ccccc2)s1, the TGI was > 100 µM. For CCNC(=O)C#Cc1ccc2c(C(=Nc3ccc(CN(C)C)cc3)c3ccccc3)c(O)[nH]c2c1, the GI50 was 0.119 µM and the TGI was > 9.05 µM. With O=C1c2cc3c(cc2CC12Cc1ccc4c(c1C2=O)CCC4)CCCC3 (configuration not stated) the TGI was > 100 µM. In the case of N#Cc1nc(-c2cnccn2)oc1N, the TGI is reported as > 100 µM. In the case of NC(=S)N/N=C1\c2cc(Cl)ccc2-c2c1cc(Cl)cc2[N+](=O)[O-], the GI50 is reported as 7.21 µM and the TGI is reported as > 100 µM.

What follows are molecules tested on SNB-19 CNS (assay: NCI tumour cell line growth inhibition, 48 h).
For CC1(C)[C@@H](Cn2cc(I)c(=O)[nH]c2=O)CC[C@@]1(C)CO, the TGI was > 100 µM. CC#Cc1ccc(-c2ccccc2)s1 was tested, and the TGI was > 100 µM. CCNC(=O)C#Cc1ccc2c(C(=Nc3ccc(CN(C)C)cc3)c3ccccc3)c(O)[nH]c2c1 was tested, and the GI50 was 0.206 µM and the TGI was > 5.9 µM. O=C1c2cc3c(cc2CC12Cc1ccc4c(c1C2=O)CCC4)CCCC3 (configuration not stated) was tested, and the TGI was > 100 µM. In the case of N#Cc1nc(-c2cnccn2)oc1N, the TGI is reported as > 100 µM. For NC(=S)N/N=C1\c2cc(Cl)ccc2-c2c1cc(Cl)cc2[N+](=O)[O-], the GI50 was 4.24 µM and the TGI was > 100 µM.

What follows are molecules tested on M14 melanoma (assay: NCI tumour cell line growth inhibition, 48 h).
For CC1(C)[C@@H](Cn2cc(I)c(=O)[nH]c2=O)CC[C@@]1(C)CO, the TGI was > 100 µM. For CC#Cc1ccc(-c2ccccc2)s1, the TGI was > 100 µM. For CCNC(=O)C#Cc1ccc2c(C(=Nc3ccc(CN(C)C)cc3)c3ccccc3)c(O)[nH]c2c1, the GI50 was 0.00782 µM and the TGI was 0.114 µM. With O=C1c2cc3c(cc2CC12Cc1ccc4c(c1C2=O)CCC4)CCCC3 (configuration not stated) the TGI was > 100 µM. In the case of N#Cc1nc(-c2cnccn2)oc1N, the TGI is reported as > 100 µM. With NC(=S)N/N=C1\c2cc(Cl)ccc2-c2c1cc(Cl)cc2[N+](=O)[O-] the GI50 was 3.27 µM and the TGI was > 100 µM.

What follows are molecules tested on HCT-15 colon (assay: NCI tumour cell line growth inhibition, 48 h).
For CC1(C)[C@@H](Cn2cc(I)c(=O)[nH]c2=O)CC[C@@]1(C)CO, the TGI was > 100 µM. For CC#Cc1ccc(-c2ccccc2)s1, the TGI was > 100 µM. With CCNC(=O)C#Cc1ccc2c(C(=Nc3ccc(CN(C)C)cc3)c3ccccc3)c(O)[nH]c2c1 the GI50 was 0.392 µM and the TGI was 4.62 µM. In the case of O=C1c2cc3c(cc2CC12Cc1ccc4c(c1C2=O)CCC4)CCCC3 (configuration not stated), the TGI is reported as > 100 µM. For N#Cc1nc(-c2cnccn2)oc1N, the TGI was > 100 µM. NC(=S)N/N=C1\c2cc(Cl)ccc2-c2c1cc(Cl)cc2[N+](=O)[O-] was tested, and the GI50 was 4.33 µM and the TGI was > 100 µM.

These molecules were tested on IGROV1 ovarian (assay: NCI tumour cell line growth inhibition, 48 h).
With CC#Cc1ccc(-c2ccccc2)s1 the TGI was > 100 µM. CCNC(=O)C#Cc1ccc2c(C(=Nc3ccc(CN(C)C)cc3)c3ccccc3)c(O)[nH]c2c1 was tested, and the GI50 was 0.0511 µM and the TGI was > 3.29 µM. O=C1c2cc3c(cc2CC12Cc1ccc4c(c1C2=O)CCC4)CCCC3 (configuration not stated) was tested, and the TGI was > 100 µM. For N#Cc1nc(-c2cnccn2)oc1N, the TGI was > 100 µM. NC(=S)N/N=C1\c2cc(Cl)ccc2-c2c1cc(Cl)cc2[N+](=O)[O-] was tested, and the GI50 was 5.68 µM and the TGI was > 100 µM.

The molecules below were run on A549 NSCLC (assay: NCI tumour cell line growth inhibition, 48 h).
For CC1(C)[C@@H](Cn2cc(I)c(=O)[nH]c2=O)CC[C@@]1(C)CO, the TGI was > 100 µM. With CC#Cc1ccc(-c2ccccc2)s1 the TGI was > 100 µM. With CCNC(=O)C#Cc1ccc2c(C(=Nc3ccc(CN(C)C)cc3)c3ccccc3)c(O)[nH]c2c1 the GI50 was 0.0401 µM and the TGI was > 5.34 µM. In the case of O=C1c2cc3c(cc2CC12Cc1ccc4c(c1C2=O)CCC4)CCCC3 (configuration not stated), the TGI is reported as > 100 µM. For N#Cc1nc(-c2cnccn2)oc1N, the TGI was > 100 µM. NC(=S)N/N=C1\c2cc(Cl)ccc2-c2c1cc(Cl)cc2[N+](=O)[O-] was tested, and the GI50 was 4.05 µM and the TGI was > 100 µM.
